Conditions: 303.15 K, Liquid, Vibrating tube method

CCCCC(=O)OCC(COC(=O)CCCC)(COC(=O)CCCC)COC(=O)CCCC [pentaerythritol tetrapentanoate]
Conditions | mass density [kg/m3]
2232.7 kPa | 1012.2
2240.1 kPa | 1012.3
2247.8 kPa | 1012.4
2256.6 kPa | 1012.3
2264.4 kPa | 1012.4
2272.4 kPa | 1012.3
2281.6 kPa | 1012.4
2289.2 kPa | 1012.3
2297.4 kPa | 1012.3
2305.2 kPa | 1012.3
2314.7 kPa | 1012.3
2322.9 kPa | 1012.2
2330.3 kPa | 1012.3
2339.9 kPa | 1012.4
2348.2 kPa | 1012.5
2356.9 kPa | 1012.5
2365.6 kPa | 1012.3
2373.5 kPa | 1012.5
2383.8 kPa | 1012.3
2391.9 kPa | 1012.4
2402.3 kPa | 1012.4
2411 kPa | 1012.3
2419.3 kPa | 1012.5
2429.4 kPa | 1012.4
2438.1 kPa | 1012.4
2446.9 kPa | 1012.4
2455.6 kPa | 1012.5
2464.8 kPa | 1012.4
2475.4 kPa | 1012.4
2484.4 kPa | 1012.5
2493.4 kPa | 1012.4
2504.2 kPa | 1012.4
2513.4 kPa | 1012.4
2522.4 kPa | 1012.5
2531.8 kPa | 1012.5
2543 kPa | 1012.6
2552.4 kPa | 1012.5
2561.7 kPa | 1012.5
2573.2 kPa | 1012.4
2582.7 kPa | 1012.6
2592.3 kPa | 1012.5
2601.8 kPa | 1012.5
2613.6 kPa | 1012.6
2623.2 kPa | 1012.5
2632.7 kPa | 1012.5
2642.9 kPa | 1012.6
2654.9 kPa | 1012.6
2664.6 kPa | 1012.5
2676.8 kPa | 1012.5
2686.8 kPa | 1012.6
2697.2 kPa | 1012.6
2707.4 kPa | 1012.6
2719.9 kPa | 1012.6
2730.3 kPa | 1012.6
2740.9 kPa | 1012.6
2751.7 kPa | 1012.5
2764.8 kPa | 1012.6
2775.1 kPa | 1012.6
2785.8 kPa | 1012.7
2799.2 kPa | 1012.6
2810.1 kPa | 1012.7
2820.9 kPa | 1012.7
2833.5 kPa | 1012.7
2844.6 kPa | 1012.7
2855.9 kPa | 1012.6
2869.2 kPa | 1012.7
2880.7 kPa | 1012.7
2892.5 kPa | 1012.8
2904.8 kPa | 1012.8
2916.2 kPa | 1012.6
2930.1 kPa | 1012.7
2941.7 kPa | 1012.8
2953.3 kPa | 1012.8
2967.4 kPa | 1012.8
2979.5 kPa | 1012.7
2991.5 kPa | 1012.8
3006.1 kPa | 1012.7
3018.4 kPa | 1012.8
3030.5 kPa | 1012.7
3043.3 kPa | 1012.8
3058.9 kPa | 1012.8
3070.7 kPa | 1012.9
3083.2 kPa | 1012.8
3096 kPa | 1012.8
3108.7 kPa | 1012.8
3123.9 kPa | 1012.9
3136.6 kPa | 1012.8
3149.9 kPa | 1013
3165.5 kPa | 1012.9
3179.1 kPa | 1013
3192.6 kPa | 1012.9
3205.9 kPa | 1012.9
3222.1 kPa | 1012.9
3236.3 kPa | 1012.9
3249.8 kPa | 1012.8
3263.8 kPa | 1013
3280.5 kPa | 1013
3294.2 kPa | 1013
3310.8 kPa | 1013
3324.8 kPa | 1013
3339.2 kPa | 1013.1
3353.6 kPa | 1013
3368.2 kPa | 1013
3385.5 kPa | 1013
3400.2 kPa | 1013.1
3415.1 kPa | 1013.1
3433 kPa | 1013.1
3448.4 kPa | 1012.9
3463.3 kPa | 1013.1
3478.2 kPa | 1013.1
3496.8 kPa | 1013.2
3512 kPa | 1013
3527.8 kPa | 1013.1
3546.5 kPa | 1013.2
3562.5 kPa | 1013.1
3578.4 kPa | 1013.2
3594 kPa | 1013.2
3613.4 kPa | 1013.2
3630 kPa | 1013
3646.7 kPa | 1013.2
3663.3 kPa | 1013.1
3683.1 kPa | 1013.2
3699.3 kPa | 1013.2
3716.7 kPa | 1013.2
3734 kPa | 1013.3
3753.9 kPa | 1013.3
3771.2 kPa | 1013.3
3789.1 kPa | 1013.3
3806.2 kPa | 1013.3
3827.7 kPa | 1013.4
3845.4 kPa | 1013.4
3863.8 kPa | 1013.3
3881.9 kPa | 1013.3
3903.9 kPa | 1013.3
3927.5 kPa | 1013.3
4003.7 kPa | 1013.4
4122.2 kPa | 1013.5
4149.2 kPa | 1013.6
4165.7 kPa | 1013.5
4185.8 kPa | 1013.5
4202.9 kPa | 1013.6
4220.2 kPa | 1013.5
4238.1 kPa | 1013.5
4257.1 kPa | 1013.5
4275.3 kPa | 1013.5
4293.5 kPa | 1013.7
4311 kPa | 1013.6
4333.3 kPa | 1013.7
4464.7 kPa | 1013.8
4605.8 kPa | 1013.8
4684.8 kPa | 1013.8
4702.2 kPa | 1013.9
4719.7 kPa | 1014
4737.5 kPa | 1013.9
4776.3 kPa | 1013.9
4798.6 kPa | 1013.9
4817.1 kPa | 1014
4836 kPa | 1013.9
4855.9 kPa | 1014
4875 kPa | 1013.9
4897.8 kPa | 1014.2
